Measurements as given in paper PMC6042793 (PLoS ONE, 2018).

Key:
[1] = test system: sialidase activity of A/Shizuoka/1573/2009 (H1N1pdm), H275Y; type: biochemical, influenza A virus (H1N1pdm); details: pH 6.5
[2] = test system: sialidase activity of A/Shizuoka/30/2014 (H1N1pdm), H275Y; type: biochemical, influenza A virus (H1N1pdm); details: pH 6.5
[3] = molecular target: viral sialidase activity of A/Shizuoka/17/2016 (H1N1pdm) (Influenza A virus, UniProt A0A0X9QTS2); type: biochemical; details: read-out: IC50 values in the sialidase inhibition assay
[4] = molecular target: viral sialidase activity of A/Shizuoka/19/2016 (H1N1pdm) (Influenza A virus, UniProt A0A0X9QTS2); type: biochemical; details: read-out: IC50 values in the sialidase inhibition assay
[5] = molecular target: viral sialidase activity of A/Shizuoka/30/2014 (H1N1pdm), H275Y (Influenza A virus, UniProt W8DXJ8, H275Y); type: biochemical
[6] = molecular target: viral sialidase activity of A/Shizuoka/1573/2009 (H1N1pdm), H275Y (Influenza A virus, UniProt C3W5S3, H275Y); type: biochemical; details: read-out: IC50 values in the sialidase inhibition assay

Row | SMILES | BTP3 fluorescence on the membrane in the presence of NAI [1] | BTP3 fluorescence on the membrane in the presence of NAI [2] | IC50 [3] [nM] | IC50 [4] [nM] | IC50 for A/Shizuoka/30/2014 relative to that for A/Shizuoka/1573/2009 [5] [fold] | IC50 ([5]; read-out: IC50 values in the sialidase inhibition assay) [nM] | IC50 [6] [nM]
1 | CCOC(=O)C1=C[C@@H](OC(CC)CC)[C@H](NC(C)=O)[C@@H](N)C1 [OV, oseltamivir] | strong fluorescence | strong fluorescence |  |  |  |  | 
2 | CCC(CC)[C@H](NC(C)=O)[C@@H]1[C@H](O)[C@@H](C(=O)O)C[C@H]1N=C(N)N [PV, peramivir] | strong fluorescence | strong fluorescence | 0.05 | 0.05 | 1.9 | 79 | 41
